Assay results taken from patent US8013008B2, “Cyclic amine compound” (Takeda Pharmaceutical Company Limited, priority 2006, dated 2011).

Key:
AR = target: T1, AR (Homo sapiens, UniProt P10275); assay: Reporter assay system using Cos7 cell (AR gene + MMTV androgen responsive promoter-luciferase); assay type: cell-based; details: 100 nM compound, 24 hr; Cos-7 co-transfected with AR and MMTV-luciferase vectors; luciferase activity induced by 1 μM 5α-dihydrotestosterone taken as 100
T1 construct: expressed in transfected cells; host or cells: Cos-7
T1 sequence (P10275 1-920): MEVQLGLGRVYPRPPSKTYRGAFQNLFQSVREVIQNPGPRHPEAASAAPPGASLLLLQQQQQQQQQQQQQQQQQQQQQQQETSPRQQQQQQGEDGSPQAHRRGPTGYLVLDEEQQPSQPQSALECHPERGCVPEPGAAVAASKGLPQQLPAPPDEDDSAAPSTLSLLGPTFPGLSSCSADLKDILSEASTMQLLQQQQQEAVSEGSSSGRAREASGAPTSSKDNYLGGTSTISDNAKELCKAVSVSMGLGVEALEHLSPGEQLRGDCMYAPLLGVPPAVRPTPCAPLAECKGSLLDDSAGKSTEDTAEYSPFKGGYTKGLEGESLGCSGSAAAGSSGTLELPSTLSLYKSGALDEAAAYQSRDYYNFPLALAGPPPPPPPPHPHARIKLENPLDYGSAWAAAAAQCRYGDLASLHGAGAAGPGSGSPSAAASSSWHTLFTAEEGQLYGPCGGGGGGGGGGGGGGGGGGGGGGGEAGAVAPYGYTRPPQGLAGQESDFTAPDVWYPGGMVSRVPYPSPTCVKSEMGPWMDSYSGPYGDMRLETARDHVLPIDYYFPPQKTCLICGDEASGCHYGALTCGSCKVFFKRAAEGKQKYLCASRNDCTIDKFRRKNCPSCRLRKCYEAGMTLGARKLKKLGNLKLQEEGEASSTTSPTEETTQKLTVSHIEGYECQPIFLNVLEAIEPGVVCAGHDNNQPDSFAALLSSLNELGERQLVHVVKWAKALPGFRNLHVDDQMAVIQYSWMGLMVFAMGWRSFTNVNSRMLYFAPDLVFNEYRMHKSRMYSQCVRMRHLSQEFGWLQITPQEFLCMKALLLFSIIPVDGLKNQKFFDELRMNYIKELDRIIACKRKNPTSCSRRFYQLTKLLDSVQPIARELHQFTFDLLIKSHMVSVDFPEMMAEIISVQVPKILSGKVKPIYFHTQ
Procedure: Cos-7(5,000,000 cells) were sown in a flask (150 cm^2), and cultured in a culture medium (DMEM medium containing 10% Dextran Charcoal (DCC)-Fetal Bovine Serum (FBS) and 2 mM glutamine) for 24 hr. A vector DNA containing AR gene, and a vector DNA prepared by binging luciferase gene at the downstream of an androgen responsive promoter derived from MMTV (Mouse Mammary Tumor Virus) were co-transfected by the liposome method. After culture for 4 hr, the cells were harvested, 10,000 cells were plated on a 96 well plate and cultured for 2 hr, after which 1 μM of 5α-dihydrotestosterone or 100 nM of a compound was added thereto. After culture for 24 hr, luciferase activity was determined. The induction rate by the compound was determined with the luciferase activity induced by addition of 1 μM of 5α-dihydrotestosterone as 100.

[1] = target: T2, wild-type androgen receptor (AR) (Homo sapiens, UniProt P10275); assay: AR binding inhibitory test (wild-type); details: 100 nM compound; 3 nM radiolabeled mibolerone; 4° C., 3 hr; dextran/charcoal B/F separation; read-out: Inhibitory rate (%) at 100 nM
T2 sequence (P10275 1-920): T1 sequence (P10275 1-920)
Procedure: To a solution containing a wild-type androgen receptor (AR) was added 3 nM radiolabeled mibolerone and 100 nM compound. After the solution was incubated at 4° C. for 3 hr, B (Bound)/F (Free) separation was performed by the dextran/charcoal method. The label count of B was measured, and the inhibitory rate of the compound was calculated.

Structure (SMILES)	Induction rate (%) at 100 nM (AR) [%]	inhibition at 0.1 µM [1] [%]
CC[C@]1(O)CCN(c2cc(F)c(C#N)c(F)c2)[C@H]1C [Example 7, 4-[(2S,3S)-3-ethyl-3-hydroxy-2-methylpyrrolidin-1-yl]-2,6-difluorobenzonitrile]	107	98
C[C@@H]1N(c2ccc(C#N)c(F)c2)CC[C@@]1(O)C1CC1 [Example 32, 4-[(2S,3R)-3-cyclopropyl-3-hydroxy-2-methylpyrrolidin-1-yl]-2-fluorobenzonitrile]	77	98
C[C@@H]1N(c2ccc(C#N)c(F)c2)CC[C@]1(C)O [Example 1, 2-fluoro-4-[(2S,3S)-3-hydroxy-2,3-dimethylpyrrolidin-1-yl]benzonitrile]	65	95
C[C@@H]1N(c2ccc(C#N)c(Cl)c2)CC[C@@]1(O)C(F)(F)F [Example 18, 2-chloro-4-[(2S,3S)-3-hydroxy-2-methyl-3-(trifluoromethyl)pyrrolidin-1-yl]benzonitrile]	89	100
CC(C)[C@@H]1N(c2cc(F)c(C#N)c(F)c2)CC[C@]1(C)O [Example 20, 2,6-difluoro-4-[(2S,3S)-3-hydroxy-2-isopropyl-3-methylpyrrolidin-1-yl]benzonitrile]	59	98
C[C@@H]1C[C@](C)(O)[C@H](C)N1c1ccc(C#N)c(Cl)c1 [Example 60, 2-chloro-4-[(2S,3S,5R)-3-hydroxy-2,3,5-trimethylpyrrolidin-1-yl]benzonitrile]	37	92
